Results: ChEMBL document CHEMBL1909046, “DrugMatrix in vitro pharmacology data”
Where a SMILES comes first, the peptide text is derived from it. Bridges are numbered along the chain shown (N, C = ends). [ ]: non-standard residue; d: D form. The star is where a group is joined. Threoninol(2S,3R) = C[C@@H](O)[C@H](CO)N*

Experiments:
Cytochrome P450 1A2 = target: T1, Cytochrome P450 1A2 (Homo sapiens, UniProt P05177); conditions: bti-tn-5b1-4; also: in other assays of this panel Not Active means under 50% inhibition at 10 µM
T1 sequence (P05177 whole entry): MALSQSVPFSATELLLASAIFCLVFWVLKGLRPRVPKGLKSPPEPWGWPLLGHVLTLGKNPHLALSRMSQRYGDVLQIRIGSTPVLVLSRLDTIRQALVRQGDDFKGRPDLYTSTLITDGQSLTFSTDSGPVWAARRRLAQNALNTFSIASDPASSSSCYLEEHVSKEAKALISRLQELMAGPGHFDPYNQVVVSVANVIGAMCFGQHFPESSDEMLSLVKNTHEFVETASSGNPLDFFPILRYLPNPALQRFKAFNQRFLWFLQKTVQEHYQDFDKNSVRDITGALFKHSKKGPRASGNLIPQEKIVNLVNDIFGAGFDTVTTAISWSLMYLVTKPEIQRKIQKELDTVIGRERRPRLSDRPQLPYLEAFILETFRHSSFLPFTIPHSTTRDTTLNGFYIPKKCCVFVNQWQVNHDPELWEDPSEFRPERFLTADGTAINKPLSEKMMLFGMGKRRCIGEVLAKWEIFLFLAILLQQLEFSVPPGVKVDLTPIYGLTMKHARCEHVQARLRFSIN

Melanocortin receptor 5 = Melanocortin receptor 5 (Homo sapiens, UniProt P33032); format: cell membranes, Membrane; conditions: hek293; also: in other assays of this panel Not Active means under 50% inhibition at 10 µM
Chain of Melanocortin receptor 5 (P33032 whole entry): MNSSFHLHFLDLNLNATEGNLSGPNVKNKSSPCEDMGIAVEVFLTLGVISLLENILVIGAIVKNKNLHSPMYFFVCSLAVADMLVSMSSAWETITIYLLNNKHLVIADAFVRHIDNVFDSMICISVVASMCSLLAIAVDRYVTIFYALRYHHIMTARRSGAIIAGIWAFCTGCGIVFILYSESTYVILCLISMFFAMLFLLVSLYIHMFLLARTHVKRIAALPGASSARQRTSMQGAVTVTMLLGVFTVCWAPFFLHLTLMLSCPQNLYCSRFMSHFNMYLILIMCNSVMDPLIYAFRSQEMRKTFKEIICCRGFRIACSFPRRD

Acetylcholinesterase = Acetylcholinesterase (Homo sapiens, UniProt P22303); assay: DRUGMATRIX: Acetylcholinesterase enzyme inhibition (substrate: acetylthiocholine); format: cell-based, HEK293; conditions: hek293; Not Active = under 50% inhibition at 10 µM
Chain of Acetylcholinesterase (P22303 whole entry): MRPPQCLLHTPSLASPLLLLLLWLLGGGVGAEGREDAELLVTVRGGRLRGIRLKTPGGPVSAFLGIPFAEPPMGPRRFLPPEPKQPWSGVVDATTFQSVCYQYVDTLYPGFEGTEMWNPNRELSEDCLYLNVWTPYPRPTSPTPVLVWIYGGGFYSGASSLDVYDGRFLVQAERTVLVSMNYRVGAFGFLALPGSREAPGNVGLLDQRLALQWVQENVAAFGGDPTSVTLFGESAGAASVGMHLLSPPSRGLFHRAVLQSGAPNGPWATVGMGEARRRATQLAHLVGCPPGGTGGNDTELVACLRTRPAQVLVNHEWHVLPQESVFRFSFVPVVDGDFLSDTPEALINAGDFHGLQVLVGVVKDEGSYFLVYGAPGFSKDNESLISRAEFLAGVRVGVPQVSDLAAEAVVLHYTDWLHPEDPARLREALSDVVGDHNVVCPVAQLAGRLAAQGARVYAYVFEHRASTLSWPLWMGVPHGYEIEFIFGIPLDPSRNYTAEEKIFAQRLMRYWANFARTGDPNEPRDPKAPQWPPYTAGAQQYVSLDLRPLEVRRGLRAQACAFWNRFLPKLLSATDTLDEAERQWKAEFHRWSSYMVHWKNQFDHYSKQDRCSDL

[1] = target: T2, Alpha-1B adrenergic receptor (Rattus norvegicus, UniProt P15823); assay: DRUGMATRIX: Alpha-1B adrenergic receptor radioligand binding (ligand: prazosin); format: cell membranes, Wistar, Liver, Membrane; conditions: Not Active = under 50% inhibition at 10 µM
T2 sequence (P15823 whole entry): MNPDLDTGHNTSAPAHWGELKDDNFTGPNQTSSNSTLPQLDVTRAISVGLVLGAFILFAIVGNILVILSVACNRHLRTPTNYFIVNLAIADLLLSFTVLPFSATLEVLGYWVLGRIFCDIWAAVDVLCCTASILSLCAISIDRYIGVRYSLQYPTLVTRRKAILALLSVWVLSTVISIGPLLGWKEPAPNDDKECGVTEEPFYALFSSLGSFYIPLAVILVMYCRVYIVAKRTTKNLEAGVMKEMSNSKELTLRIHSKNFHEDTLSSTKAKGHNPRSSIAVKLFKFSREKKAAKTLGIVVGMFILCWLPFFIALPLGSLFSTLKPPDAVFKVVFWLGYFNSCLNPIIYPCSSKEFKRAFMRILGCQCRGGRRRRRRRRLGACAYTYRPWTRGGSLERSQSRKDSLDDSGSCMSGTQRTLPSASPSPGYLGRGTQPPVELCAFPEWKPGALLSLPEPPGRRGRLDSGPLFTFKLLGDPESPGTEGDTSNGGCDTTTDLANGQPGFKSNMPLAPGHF

[2] = DRUGMATRIX: Glutamate, NMDA, Agonism radioligand binding (ligand: [3H] CGP-39653); format: cell membranes, Rattus norvegicus, Wistar, Cerebral cortex, Membrane; conditions: Not Active = under 50% inhibition at 10 µM
[3] = DRUGMATRIX: Interleukin IL-1 radioligand binding (ligand: [125I] interleukin 1beta); format: cell membranes, Membrane; conditions: nih3t3; Not Active = under 50% inhibition at 10 µM
[4] = target: T3, Type-2 angiotensin II receptor (Homo sapiens, UniProt P50052); format: cell-based; conditions: cho-k1; also: in other assays of this panel Not Active means under 50% inhibition at 10 µM
T3 sequence (P50052 whole entry): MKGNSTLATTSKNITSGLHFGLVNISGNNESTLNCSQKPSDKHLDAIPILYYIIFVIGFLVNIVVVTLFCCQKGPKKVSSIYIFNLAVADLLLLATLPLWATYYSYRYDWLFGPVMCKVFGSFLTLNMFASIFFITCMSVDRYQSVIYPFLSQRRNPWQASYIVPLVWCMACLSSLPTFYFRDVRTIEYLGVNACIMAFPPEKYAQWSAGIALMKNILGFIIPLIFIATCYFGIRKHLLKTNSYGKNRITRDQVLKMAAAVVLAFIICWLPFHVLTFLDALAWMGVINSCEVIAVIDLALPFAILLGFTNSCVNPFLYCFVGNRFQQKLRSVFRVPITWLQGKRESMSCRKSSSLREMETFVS

[5] = DRUGMATRIX: Platelet-Derived Growth Factor (PDGF) radioligand binding (ligand: [125I] PDGF); format: cell-based; conditions: nih3t3; Not Active = under 50% inhibition at 10 µM

COc1ccccc1C(=O)N1CCC(Cc2ccccc2)CC1
Not Active: IC50 (Cytochrome P450 1A2) | Ki (Cytochrome P450 1A2) | IC50 (Melanocortin receptor 5) | IC50 (Acetylcholinesterase) | IC50 [1] | IC50 [2] | Ki [2] | IC50 [3] | Ki [3] | IC50 [4] | IC50 [5] | Ki [5]

Cc1ccccc1C(=O)N1CCC(Cc2ccccc2)CC1
Not Active: IC50 (Cytochrome P450 1A2) | Ki (Cytochrome P450 1A2) | IC50 (Melanocortin receptor 5) | IC50 (Acetylcholinesterase) | IC50 [1] | IC50 [2] | Ki [2] | IC50 [3] | Ki [3] | IC50 [4] | IC50 [5] | Ki [5]

O=C1CC[C@H](N2C(=O)c3ccccc3C2=O)C(=O)N1
Not Active: IC50 (Cytochrome P450 1A2) | Ki (Cytochrome P450 1A2) | IC50 (Melanocortin receptor 5) | IC50 (Acetylcholinesterase) | IC50 [1] | IC50 [2] | Ki [2] | IC50 [3] | Ki [3] | IC50 [4] | IC50 [5] | Ki [5]

N=C(Nc1ccccc1)Nc1ccccc1
Not Active: IC50 (Cytochrome P450 1A2) | Ki (Cytochrome P450 1A2) | IC50 (Melanocortin receptor 5) | IC50 (Acetylcholinesterase) | IC50 [1] | IC50 [2] | Ki [2] | IC50 [3] | Ki [3] | IC50 [4] | IC50 [5] | Ki [5]

C[C@@H](O)[C@H](CO)NC(=O)[C@@H]1CSSC[C@H](NC(=O)[C@H](N)Cc2ccccc2)C(=O)N[C@@H](Cc2ccccc2)C(=O)N[C@H](Cc2c[nH]c3ccccc23)C(=O)N[C@@H](CCCCN)C(=O)N[C@@H]([C@@H](C)O)C(=O)N1 (H-[dF]CF[dW]KTC-{Threoninol(2S,3R)}; disulfide 2-7)
Not Active: IC50 (Cytochrome P450 1A2) | Ki (Cytochrome P450 1A2) | IC50 (Melanocortin receptor 5) | IC50 (Acetylcholinesterase) | IC50 [1] | IC50 [2] | Ki [2] | IC50 [3] | Ki [3] | IC50 [4] | IC50 [5] | Ki [5]

C[C@](O)(CS(=O)(=O)c1ccc(F)cc1)C(=O)Nc1ccc(C#N)c(C(F)(F)F)c1 [(R)-BICALUTAMIDE]
Not Active: IC50 (Cytochrome P450 1A2) | Ki (Cytochrome P450 1A2) | IC50 (Melanocortin receptor 5) | IC50 (Acetylcholinesterase) | IC50 [1] | IC50 [2] | Ki [2] | IC50 [3] | Ki [3] | IC50 [4] | IC50 [5] | Ki [5]

CCCC(=O)Nc1ccc(OCC(O)CNC(C)C)c(C(C)=O)c1 (stereo not given) [ACEBUTOLOL]
Not Active: IC50 (Cytochrome P450 1A2) | Ki (Cytochrome P450 1A2) | IC50 (Melanocortin receptor 5) | IC50 (Acetylcholinesterase) | IC50 [1] | IC50 [2] | Ki [2] | IC50 [3] | Ki [3] | IC50 [4] | IC50 [5] | Ki [5]

CC(=O)Nc1ccc(O)cc1 [ACETAMINOPHEN]
Not Active: IC50 (Cytochrome P450 1A2) | Ki (Cytochrome P450 1A2) | IC50 (Melanocortin receptor 5) | IC50 (Acetylcholinesterase) | IC50 [1] | IC50 [2] | Ki [2] | IC50 [3] | Ki [3] | IC50 [4] | IC50 [5] | Ki [5]

COc1cc2c(c3oc(=O)c4c(c13)CCC4=O)[C@@H]1C=CO[C@@H]1O2 [AFLATOXIN]
Not Active: IC50 (Cytochrome P450 1A2) | Ki (Cytochrome P450 1A2) | IC50 (Melanocortin receptor 5) | Ki (Melanocortin receptor 5) | IC50 (Acetylcholinesterase) | Ki (Acetylcholinesterase) | IC50 [1] | Ki [1] | IC50 [2] | Ki [2] | IC50 [3] | Ki [3] | IC50 [4] | Ki [4] | IC50 [5] | Ki [5]

N=C(N)NC(=O)c1nc(Cl)c(N)nc1N [AMILORIDE]
Not Active: IC50 (Cytochrome P450 1A2) | Ki (Cytochrome P450 1A2) | IC50 (Melanocortin receptor 5) | IC50 (Acetylcholinesterase) | IC50 [1] | IC50 [2] | Ki [2] | IC50 [3] | Ki [3] | IC50 [4] | IC50 [5] | Ki [5]

Cc1cc(=O)n(-c2ccccc2)n1C [ANTIPYRINE]
Not Active: IC50 (Cytochrome P450 1A2) | Ki (Cytochrome P450 1A2) | IC50 (Melanocortin receptor 5) | IC50 (Acetylcholinesterase) | IC50 [1] | IC50 [2] | Ki [2] | IC50 [3] | Ki [3] | IC50 [4] | IC50 [5] | Ki [5]

CN1C(=O)COc2c(C(=O)NC3CN4CCC3CC4)cc(Cl)cc21 (stereo not given) [AZASETRON]
Not Active: IC50 (Cytochrome P450 1A2) | Ki (Cytochrome P450 1A2) | IC50 (Melanocortin receptor 5) | IC50 (Acetylcholinesterase) | IC50 [1] | IC50 [2] | Ki [2] | IC50 [3] | Ki [3] | IC50 [4] | IC50 [5] | Ki [5]

C[C@H]1C[C@H]2[C@@H]3CCC4=CC(=O)C=C[C@]4(C)[C@@]3(Cl)[C@@H](O)C[C@]2(C)[C@@]1(O)C(=O)CO [BECLOMETHASONE]
Not Active: IC50 (Cytochrome P450 1A2) | Ki (Cytochrome P450 1A2) | IC50 (Melanocortin receptor 5) | IC50 (Acetylcholinesterase) | IC50 [1] | IC50 [2] | Ki [2] | IC50 [3] | Ki [3] | IC50 [4] | IC50 [5] | Ki [5]
